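Where inhibition never reached the appropriate level, the endpoint shown equals the highest concentration tested. Otherwise, values were interpolated linearly from a five-concentration, 48-hour dose response in 96-well plates. TGI is the concentration that stops growth completely.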
Experiments:
Assay in all cases: growth of human tumour cells (NCI), 48 h
SW-620 colon = test system: SW-620 colon
KM12 colon = test system: KM12 colon
T-47D breast = test system: T-47D breast
HL-60(TB) leukemia = test system: HL-60(TB) leukemia
HCT-116 colon = test system: HCT-116 colon
SNB-19 CNS = test system: SNB-19 CNS
MALME-3M melanoma = test system: MALME-3M melanoma
BT-549 breast = test system: BT-549 breast
OVCAR-8 ovarian = test system: OVCAR-8 ovarian
HCC-2998 colon = test system: HCC-2998 colon
K-562 leukemia = test system: K-562 leukemia
NCI-H23 lung = test system: NCI-H23 lung
HOP-62 NSCLC = test system: HOP-62 NSCLC
UO-31 renal = test system: UO-31 renal
MDA-N = test system: MDA-N
OVCAR-4 ovarian = test system: OVCAR-4 ovarian
UACC-62 melanoma = test system: UACC-62 melanoma

Row | Compound | TGI (SW-620 colon) | TGI (KM12 colon) | TGI (T-47D breast) | TGI (HL-60(TB) leukemia) | TGI (HCT-116 colon) | TGI (SNB-19 CNS) | TGI (MALME-3M melanoma) | TGI (BT-549 breast) | TGI (OVCAR-8 ovarian) | TGI (HCC-2998 colon) | TGI (K-562 leukemia) | TGI (NCI-H23 lung) | TGI (HOP-62 NSCLC) | TGI (UO-31 renal) | TGI (MDA-N) | TGI (OVCAR-4 ovarian) | TGI (UACC-62 melanoma)
1 | CCOC(=O)C1(Cc2ccccc2)Cc2cc3c(cc2C1=O)CCC3 (configuration not stated) | > 100 µM | > 100 µM | > 100 µM | > 100 µM | > 100 µM | > 100 µM | > 100 µM | > 100 µM | > 100 µM | > 100 µM | > 100 µM | > 100 µM | > 100 µM | > 100 µM | > 100 µM | > 100 µM | > 100 µM
2 | CC(=O)c1c2c(cc3c1CC1(Cc4cc5c(cc4C1=O)CCC5)C3)CCC2 (configuration not stated) | > 100 µM | > 100 µM | > 100 µM | > 59.4 µM | > 100 µM | > 100 µM | > 100 µM | > 100 µM | > 100 µM | > 100 µM | > 100 µM | > 100 µM | > 100 µM | > 100 µM | > 100 µM | > 100 µM | > 100 µM
3 | CC(C)(C)c1ccc(-c2nc3ccccc3c(=O)o2)cc1 | > 100 µM | > 100 µM | > 100 µM | 48.8 µM | > 100 µM | > 100 µM | > 100 µM | 91 µM | > 100 µM | 85.5 µM | > 100 µM | > 100 µM | > 100 µM | > 100 µM | > 100 µM | > 100 µM | > 100 µM
4 | CCc1ccc(CCC(=O)O)nc1 | > 100 µM | > 100 µM | > 100 µM | > 100 µM | > 100 µM | > 100 µM | > 100 µM | > 100 µM | > 100 µM | > 100 µM | > 100 µM | > 100 µM | > 100 µM | > 100 µM | > 100 µM | > 100 µM | > 100 µM
5 | Cc1c(C)c(S(=O)(=O)N(CCCCCN)OCCCN)c(C)c2c1OC(C)(C)CC2 | > 40.2 µM | 8.93 µM | > 57.8 µM | 5.92 µM | 30 µM | 24.8 µM | 28 µM | 29.8 µM | > 50 µM | 6.05 µM | > 59.7 µM | 33 µM | 25.1 µM | 41.1 µM | 31.1 µM | 13.3 µM | 30.3 µM
6 | COc1ccc(-c2nc(N)c(C#N)c3c2CCSc2ccc(C)cc2-3)cc1OC | > 100 µM | 34.2 µM | > 31.5 µM | 17.7 µM | 30.7 µM | > 83.5 µM | > 100 µM | 70.8 µM | > 73.6 µM | > 57.8 µM | 13.7 µM | > 61 µM | > 100 µM | 27.2 µM | > 45.5 µM | > 93.8 µM | 47.1 µM

From PubChem BioAssay (NCI)
